Results from patent publication US20010041743A1, “Use of cyclopentenone derivatives for bone and periodontal regeneration” (priority 2000, published 2001).
Entries after “also recorded” stand apart in the source; their conditions may differ.

Tests used:
[1] = system: titanium implants placed in the rat femur; assay: Titanium implant model of bone regeneration (bone height and width around implant); assay type: in vivo; conditions: for bone growth (height and width) around implant: versus control vehicle
Protocol: In a second study, titanium implants were placed in the rat femurto mimic human dental implant placement, as described in Example 2. Bone healing and regeneration around the implants was assessed following treatment with implants loaded with Δ^12PGJ2.
Six male Wistar rats were anesthetized as described in Example 1 for the placement of 4 titanium implants in each animal. Implants were fabricated from surgical grade titanium 1.5 mm in diameter, 2.5 mm in length with machined threads, cleaned bysonication and autoclaved prior to use. Implant sites were prepared with cooling using a dental high speed hand piece. One test and one control implant site were prepared for placement of 5 μl of test or control solution, followed by implant placement. Control implants comprised vehicle only (10% carboxymethylcellulose in normal saline). For test sites, 10^−3M or 10^−5M Δ^12PGJ2 was applied to the site following placement of the implant. Animals were monitored for 3 or 8 weeks following implantation.
Femur bones were collected and fixed in 4% paraformaldehyde, 0.1 M phosphate buffer. Samples were cleared through sequential washings of graded alcohol followed by xylene. Bones were embedded in methacrylate and sectioned with a low speed diamond saw and stained with Toluidine Blue. Two different quantitative measurements were derived from each implant to measure the amount of bone regenerated around each implant. These measurements represent the bone height from the endosteal surface to the most apical bone contact area of the implant and the mean width of that same bone calculated using three measurement references, including the endosteal surface (ES), ES +130 microns, and ES +260 microns.

BMP-6 = assay: Immunohistochemistry of BMP-6 expression in the titanium enclosure model; assay type: in vivo, rat; conditions: no concentration stated
Protocol: (§1) In one study, bone regeneration and gene expression was assayed using a titanium enclosure model, as described in Example 1 (FIG. 1). Briefly, transcortical defects were created surgically in rat femurs. A collagen sponge, loaded with a varying concentration of Δ^12PGJ2 was applied to each defect. The collagen sponge was secured by placement of the titanium enclosure, which served as a rigid and fixed geometry cell exclusion barrier. Animals were sacrificed at 10 days and bone tissue sections were prepared for immunohistology to quantify growth factor expression. Tissue sections from treated animals were also analyzed morphometrically to assess de novo bone formation of the defect areas.
(§2) Δ^12PGJ2 (Cayman Chemical, Ann Arbor, Mich.) was diluted in 0.9% NaCl, pH 7.2, to the final concentration of 1×10^−3, 1×10^−5, 1×10^−7, and 1×10^−9 M. An absorbable collagen sponge (Colla-Tec Inc. Plainsboro, N.J.) 5×1.5 mm dimensions was used as a carrier. […] The animals were monitored every day after surgery for indication of post-operative reactions. […]
(§3) The area and average intensity of positive immunostaining were measured using a microscope connected to a computerized video digital system (JAVA video analysis software, Jandel Scientific, Corte Madera, Calif.) at a magnification of 100×. […]

BMP-2 = assay: Immunohistochemistry of BMP-2 expression in the titanium enclosure model; assay type: in vivo, rat; conditions: no concentration stated
Protocol: as §1, §2, §3

PDGF-A = assay: Immunohistochemistry of PDGF-A expression in the titanium enclosure model; assay type: in vivo, rat; conditions: no concentration stated
Protocol: as §1, §2, §3

PDGF-B = assay: Immunohistochemistry of PDGF-B expression in the titanium enclosure model; assay type: in vivo, rat; conditions: for PDGF-B expression in the area of the defect: 10 days
Protocol: as §1
(§4) Δ^12PGJ2 (Cayman Chemical, Ann Arbor, Mich.) was diluted in 0.9% NaCl, pH 7.2, to the final concentration of 1×10^−3, 1×10^−5, 1×10^−7, and 1×10^−9 M. An absorbable collagen sponge (Colla-Tec Inc. Plainsboro, N.J.) 5×1.5 mm dimensions was used as a carrier. 10 μl of each Δ^12PGJ2 solution were loaded into the collagen carrier and then the carrier was placed inside the half cylindrical titanium enclosure. This provided a dosage of 3.0 μg, 30 ng, 0.3 ng, and 3 pg Δ^12PGJ2 in each of five standardized defects. The remaining volume inside the enclosure was filled with blood collected from the defect. The enclosure was inverted, placed over the defect, and stabilized by circumosseous wiring around the femoral bone using #010 orthodontic wire. […] The animals were monitored every day after surgery for indication of post-operative reactions. […]
as §3, with “100×. Three to five sections were analyzed for each femur and the data from all sections were pooled to reflect a mean value for each bone defect.” for “100×.”

[2] = system: transcortical defects in rat femurs; assay: Titanium enclosure model of bone regeneration (histomorphometry of cortical defect); assay type: in vivo; conditions: for percentage of new bone formation in cortical defect area (bone growth): rat femur, control value 40%
Protocol: as §1
Titanium enclosures were prepared by trimming and carving 0.1 mm thickness titanium plate to half cylindrical shape which had 8×1.5×2 mm in length, height, and width respectively. Both ends of the enclosures were sealed with surgical grade, self curing acrylic resin to form a closed half cylinder which is open only in the sagittal direction. The enclosures were then washed in an ultrasonic cleaning machine and autoclaved to sterilize and to create a titanium oxide surface prior to use.
Twenty-eight male Wistar rats, aged 8 weeks and weighing 350-400 g were randomly separated into 4 groups that received varying doses of Δ^12PGJ2. Two rats were housed in each cage with free access to normal laboratory diet and water ad libitum. After 7 days of acclimatization, the animals were initially anesthetized intramuscularly with Sodium pentobarbital (Nembutal sodium solution, Abbott Laboratories, Chicago, Ill.) at a dosage of 75 mg/kg of body weight. The area of intended surgery was shaved and disinfected using 90% ethyl alcohol. After pupillary reflex was inhibited, a 3-cm incision was made through skin and muscle parallel to the long axis over the dorsal aspect of both left and right femoral bone. The periosteum was incised and removed from the surface of the bone, creating an exposed area of sufficient size to place the open face of the cylindrical enclosure directly on the bone surface. Subsequently, a 5×1.5 mm transcortical defect was made through the cortical bone into the bone marrow at the midshaft region using round and cylindrical steel burs and a low speed micromotor machine. A sufficiently sterile 0.9% saline solution was used as a coolant to avoid heat-induced necrosis of surrounding bone. The femoral bone on one side of the animal was randomly chosen for treatment with Δ^12PGJ2, and the contralateral side was used as a control. FIG. 1 depicts a schematic diagram of the titanium enclosure model.
as §4

[3] = treated versus control injuries, 10^−3M or 10^−5M applied to site

With `CCCCCC(O)CC=C1C(=O)C=CC1C/C=C\CCCC(=O)O` (stereo not drawn) [Δ^12PGJ2, Δ^12-13,14-dihydro-9-deoxy-Δ^9-prostaglandin D2] the “bone growth (height and width) around implant” value ([1]; 3 weeks after administration) was “Significantly increased bone growth”, the “bone growth (height and width) around implant” value ([1]; 8 weeks after administration) was “Significantly increased bone growth” and the “bone height around implant” value [1, 3] was “significantly increased”. For the same molecule, the “bone width around implant” value [1, 3] was “significantly increased”, the “BMP-6 expression / induction” value (BMP-6) was “increase in BMP-6 expression; also recorded: potent and dose-dependent inducer” and the BMP-2 induction (BMP-2) was “potent and dose-dependent inducer”. The PDGF-A induction (PDGF-A) was “potent and dose-dependent inducer”, the “PDGF-B expression in the area of the defect” value (PDGF-B; 10^−3M) was “significant increase” and the “PDGF-B expression in the area of the defect” value (PDGF-B; 10^−5M) was “significant increase”. For the same molecule, the “PDGF-B expression / induction (general statement)” value (PDGF-B; no concentration stated) was “increase in PDGF-B expression; also recorded: potent and dose-dependent inducer”, the “bone volume following administration (FIG. 2)” value [2] was “increase in bone volume” and the “percentage of new bone formation in cortical defect area (bone growth)” value ([2]; 30 ng dose in collagen sponge, 10 days) was 53 % volume. For the same molecule, the “increase in total bone area following treatment” value ([2]; 3.0 μg and 30 ng doses versus control, 10 days) was ~33%, the “percentage of new bone formation in cortical defect area (bone growth)” value ([2]; 3.0 μg dose in collagen sponge, 10 days) was 54 % volume and the “percentage of new bone formation, dose dependence” value ([2]; doses 3 pg to 3.0 μg, 10 days) was “increased in a dose-dependent manner”.
